Measurements reported in patent publication US20140194373A1, “COSMETIC USE OF […] A DERIVATIVE THEREOF IN THE PREVENTION AND/OR TREATMENT OF BODY ODOUR” (NESTEC S.A., priority 2011, published 2014).

System: dermicidin
Experiment: Differential proteomic analysis (iTRAQ) of stratum corneum varnish strips after oral supplementation, randomized double-blind study
Assay type: in vivo, women
Details: 500 mg of hesperidin per day, samples at D1 and D168, left leg, compared with placebo maltodextrin, n=33 per group
Procedure: The test product consists of hesperidin and is administered orally.
The active agent was tested alone in a randomized double-blind study.
66 women were divided into two groups, one of these groups testing maltodextrin (n=33 group A), the other testing hesperidin (n=33 group B).
The supplementation was 500 mg of hesperidin per day.
The evolution of various cutaneous markers was studied by proteomics on samples of isolated stratum corneum as indicated hereinbelow.
A sample is taken at times D1 and D168 with varnish strips in order to remove only part of the stratum corneum, i.e. at most the first 4 to 5 layers of stratum corneum.
To do this, a 41 μm Nylon filter gauze of Millipore NY41 type is applied to a predefined area of the left leg. […]
These skin samples (varnish strips of stratum corneum) were then analysed by proteomics by means of an “isobaric marking” technique to evaluate the expression of the protein(s) under study. […]
The marked peptides are detected by mass spectrometry with the intrinsic mass of the peptide +145 Da, originating from the reagent. In the peptide fragmentation step, the contribution of each of the reagents is assessed by the release of ions (fragments) having different specific masses. […]

For `COc1ccc([C@@H]2CC(=O)c3c(O)cc(O[C@@H]4O[C@H](CO[C@@H]5O[C@@H](C)[C@H](O)[C@@H](O)[C@H]5O)[C@@H](O)[C@H](O)[C@H]4O)cc3O2)cc1O` [hesperidin, (S)-7-[[6-0-(6-deoxy-α-L-mannopyranosyl)-β-D-glucopyranosyl]oxy]-2,3-dihydro-5-hydroxy-2-(3-hydroxy-4-methoxyphenyl)-4H-1-benzopyran-4-one], the “expression of dermicidin in stratum corneum” value was “significantly stimulates the expression of dermicidin”.
